Like-named read-outs stand apart in the source and are kept apart here.

The source of these data is patent US10696692B2, “Amido-benzyl sulfone and sulfoxide derivates” (Forma TM, LLC, priority 2012, dated 2020).

Experiment [1] relates to A2780 cells. Kind of experiment: Assay 2: In-Vitro Cell Proliferation Assay (A2780 cells, SRB readout, 72 hours).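 Further: viable cells counted via sulforhodamine B staining, absorbance at 570 nm, after 72 h exposure at 37 °C, DMSO 0.1% as control, media-only background subtracted.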 In kind it is cell-based. Particulars: A2780 cells, 72 hours, SRB, read-out: Cell Proliferation (IC50).
Experiment [2] concerns the target NAMPT (Homo sapiens (Human), UniProt P43490). Kind of experiment: Assay 1: Biochemical Inhibition Assay (NAMPT enzymatic reaction, NMN quantified by mass spectrometry).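 Further: recombinant His-tagged human NAMPT preincubated with compound 15 min, then reacted 30 min at rt with 1 µM NAM, 100 µM PRPP, 2.5 mM ATP, NMN product read by RapidFire MS, normalized to L-Cystathionine internal standard.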 Particulars: read-out: Biochemical (IC50).

NAMPT, sequence (P43490 whole entry): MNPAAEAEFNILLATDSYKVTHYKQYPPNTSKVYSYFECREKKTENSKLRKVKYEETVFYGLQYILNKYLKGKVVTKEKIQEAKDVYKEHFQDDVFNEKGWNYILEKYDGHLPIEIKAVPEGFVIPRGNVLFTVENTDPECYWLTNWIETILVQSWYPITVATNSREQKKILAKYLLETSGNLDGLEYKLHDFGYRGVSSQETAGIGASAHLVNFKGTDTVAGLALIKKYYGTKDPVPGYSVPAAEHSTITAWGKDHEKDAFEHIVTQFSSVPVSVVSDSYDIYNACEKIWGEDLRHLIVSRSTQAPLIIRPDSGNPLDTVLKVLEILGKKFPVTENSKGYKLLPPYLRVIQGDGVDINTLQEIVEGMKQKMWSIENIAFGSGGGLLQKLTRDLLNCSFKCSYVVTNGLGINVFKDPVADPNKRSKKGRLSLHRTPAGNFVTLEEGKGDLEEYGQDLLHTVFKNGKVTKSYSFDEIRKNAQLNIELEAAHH

Take `CC(C)N1CCC([S+]([O-])c2ccc(CNC(=O)c3cc4cnccc4[nH]3)cc2)CC1` (stereo not drawn) [Example 386, N-[[4-[(1-isopropyl-4-piperidyl)sulfinyl]phenyl]methyl]-1H-pyrrolo[3,2-c]pyridine-2-carboxamide]: the IC50 in experiment [1] (Homo sapiens, A2780, 72 h) was determined as 70.6 nM; in experiment [2] it was 60 nM.
Turning to `N#CCCNC1CCN(S(=O)(=O)c2ccc(CNC(=O)c3cnc4[nH]ncc4c3)cc2)CC1` [Example 57, 1H-Pyrazolo[3,4-b]pyridine-5-carboxylic acid 4-[4-(2-cyano-ethylamino)-piperidine-1-sulfonyl]-benzylamide], the IC50 in experiment [1] (Homo sapiens, A2780, 72 h) was determined as 55.5 nM; in experiment [2], 64.8 nM.
On to `O=C(NCc1ccc(S(=O)(=O)N2CCCCC2)cc1)c1ccc2nccn2n1` [Example 16, Imidazo[1,2-b]pyridazine-6-carboxylic acid 4-(piperidine-1-sulfonyl)-benzylamide], for which the IC50 is 163 nM in experiment [1] (Homo sapiens, A2780, 72 h) and 22 nM in experiment [2].
On to `O=C(NCc1ccc(S(=O)(=O)N2CCCC23CCNCC3)cc1)c1ccc2nccn2c1` [Example 331, N-[[4-(1,8-diazaspiro[4.5]decan-1-ylsulfonyl)phenyl]methyl] imidazo[1,2-a]pyridine-6-carboxamide], for which the IC50 in experiment [1] (Homo sapiens, A2780, 72 h) was found to be 774 nM; in experiment [2] it was 355 nM.
For `CC(C)(C)OC(=O)N1CCCC2(C1)CN(S(=O)(=O)c1ccc(CNC(=O)c3ccc4nccn4c3)cc1)CCO2` (racemic) [Example 126, 4-(4-{[(Imidazo[1,2-a]pyridine-6-carbonyl)-amino]-methyl}-benzenesulfonyl)-1-oxa-4,8-diaza-spiro[5.5]undecane-8-carboxylic acid tert-butyl ester], the IC50 was found to be 1.25 nM in experiment [1] (Homo sapiens, A2780, 72 h) and 17.5 nM in experiment [2].
Turning to `O=C(NCc1ccc(S(=O)(=O)N2CCOCC2)cc1)c1cnc2nccn2c1` [Example 15, Imidazo[1,2-a]pyrimidine-6-carboxylic acid 4-(morpholine-4-sulfonyl)-benzylamide], the IC50 in experiment [1] (Homo sapiens, A2780, 72 h) was 624 nM; in experiment [2], 6.8 nM.
In the case of `CC(C)(C)OC(=O)N1CCC2(CCCN(S(=O)(=O)c3ccc(CNC(=O)c4ccc5nccn5c4)cc3)C2)CC1` [Example 131, 2-(4-{[(Imidazo[1,2-a]pyridine-6-carbonyl)-amino]-methyl}-benzenesulfonyl)-2,9-diaza-spiro[5.5]undecane-9-carboxylic acid tert-butyl ester], the IC50 was 5.8 nM in experiment [1] (Homo sapiens, A2780, 72 h) and 40.4 nM in experiment [2].
Take “tert-butyl 2-[4-[(imidazo[1,2- a]pyridine-6- carbonylamino)methyl]phenyl] sulfonyl-2,9- diazaspiro[4.5]decane-9- carboxylate [Example 242]”: the IC50 in experiment [1] turned out to be 2.99 nM; in experiment [2], 6.34 nM.
Regarding `O=C(NCc1ccc(S(=O)(=O)N2CCOC3(CCCNC3)C2)cc1)c1ccc2nccn2c1` (stereo not drawn) [Example 322, N-[[4-(1-oxa-4,8-diazaspiro[5.5]undecan-4-ylsulfonyl)phenyl]methyl] imidazo[1,2-a]pyridine-6-carboxamide], the IC50 in experiment [1] (Homo sapiens, A2780, 72 h) stood at 39 nM; in experiment [2], 43.4 nM.
With `O=C(NCc1ccc(S(=O)(=O)[C@@H]2CCOC2)cc1)c1cnc2[nH]ncc2c1` [Example 233, N-[[4-((3R)-tetrahydrofuran-3-yl]sulfonylphenyl]methyl]-1H-pyrazolo[3,4-b]pyridine-5-carboxamide], the IC50 was found to be 1590 nM in experiment [1] (Homo sapiens, A2780, 72 h) and 227 nM in experiment [2].
Regarding `O=C(NCc1ccc(S(=O)(=O)N2CC3(CCOCC3)C2)cc1)c1ccc2nccn2c1` [Example 218, N-[[4-(7-oxa-2-azaspiro[3.5]nonan-2-ylsulfonyl)phenyl]methyl] imidazo[1,2-a]pyridine-6-carboxamide], the IC50 in experiment [1] (Homo sapiens, A2780, 72 h) turned out to be 3.45 nM; in experiment [2] it was 10.3 nM.
Regarding `O=C(NCc1ccc(S(=O)(=O)N2CCCCC2)cc1)c1cn2[nH]ccc2n1` [Example 1, 5H-Imidazo[1,2-b]pyrazole-2-carboxylic acid 4-(piperidine-1-sulfonyl)-benzylamide], the IC50 in experiment [1] (Homo sapiens, A2780, 72 h) is 19100 nM; in experiment [2], 8100 nM.
For “cis-Imidazo[1,2- a]pyridine-6-carboxylic acid 4-[(3aR,6aS)- (tetrahydro-furo[3,4- c]pyrrol-5-yl)sulfonyl]- benzylamide [Example 71]”, the values for the IC50 in experiment [1] and in experiment [2] were 6.4 nM and 16.7 nM, respectively.
With `CCCN1CCC([S+]([O-])c2ccc(CNC(=O)c3cc4ccncc4o3)cc2)CC1` (stereo not drawn) [Example 358, N-[[4-[(1-propyl-4-piperidyl)sulfinyl]phenyl]methyl]furo[2,3-c]pyridine-2-carboxamide], the IC50 in experiment [1] came out at 4.58 nM; in experiment [2], 19.3 nM.
Take `CC(C)CN1CCC([S+]([O-])c2ccc(CNC(=O)c3cc4cnccc4[nH]3)cc2)CC1` (stereo not drawn) [Example 191, N-[[4-[(1-isobutyl-4-piperidyl)sulfinyl]phenyl]methyl]-1H-pyrrolo[3,2-c]pyridine-2-carboxamide]: the IC50 was found to be 5.6 nM in experiment [1] (Homo sapiens, A2780, 72 h) and 26.3 nM in experiment [2].
Take `O=C(NCc1ccc(S(=O)(=O)N2CC3(CCOCC3)C2)cc1)c1cc2ccncc2o1` [Example 263, N-[[4-(7-oxa-2-azaspiro[3.5]nonan-2-ylsulfonyl)phenyl]methyl]furo [2,3-c]pyridine-2-carboxamide]: the IC50 in experiment [1] (Homo sapiens, A2780, 72 h) is 23.4 nM; in experiment [2] it was 18.2 nM.
The corresponding values for `O=C(NCc1ccc(S(=O)(=O)[C@H]2CCOC2)cc1)c1cnc2[nH]ncc2c1` [Example 231, N-[[4-[(3S)-tetrahydrofuran-3-yl]sulfonylphenyl]methyl]-1H-pyrazolo[3,4-b]pyridine-5-carboxamide] are 977 nM and 315 nM.
Regarding `CCCN1CCC([S+]([O-])c2ccc(CNC(=O)c3cc4ccncc4o3)cc2)CC1` (stereo not drawn) [Example 382, N-[[4-[(1-propyl-4-piperidyl)sulfinyl]phenyl]methyl]furo[2,3-c]pyridine-2-carboxamide], the IC50 in experiment [1] and in experiment [2] was 2000 nM throughout.
As for `CC(=O)N1CCN(S(=O)(=O)c2ccc(CNC(=O)c3ccc4nccn4c3)cc2)CC1` [Example 93, Imidazo[1,2-a]pyridine-6-carboxylic acid 4-(4-acetyl-piperazine-1-sulfonyl)-benzylamide], the IC50 in experiment [1] (Homo sapiens, A2780, 72 h) amounted to 13 nM; in experiment [2], 22.4 nM.
Consider `CC(=O)N1CCC(S(=O)(=O)c2ccc(CNC(=O)c3cnc4[nH]ncc4c3)cc2)C1` (stereo not drawn) [Example 348, N-[[4-(1-acetylpyrrolidin-3-yl)sulfonylphenyl]methyl]-1H-pyrazolo[3,4-b]pyridine-5-carboxamide], for which the IC50 was 2000 nM in experiment [1] (Homo sapiens, A2780, 72 h) and 2000 nM in experiment [2].
For `NC1CC2(CCN(S(=O)(=O)c3ccc(CNC(=O)c4ccc5nccn5c4)cc3)CC2)C1` [Example 323, N-[[4-[(2-amino-7-azaspiro[3.5]nonan-7-yl)sulfonyl]phenyl]methyl] imidazo[1,2-a]pyridine-6-carboxamide], the IC50 in experiment [1] (Homo sapiens, A2780, 72 h) amounted to 13.3 nM; in experiment [2] it was 17.7 nM.
The corresponding values for `NCC12CC(CN1S(=O)(=O)c1ccc(CNC(=O)c3ccc4nccn4c3)cc1)C2` [Example 328, N-[[4-[[4-(aminomethyl)-3-azabicyclo[2.1.1]hexan-3-yl]sulfonyl]phenyl]methyl) imidazo[1,2-a]pyridine-6-carboxamide] are 2000 nM and 1680 nM.
Turning to `CN1CCOC2(C1)CN(S(=O)(=O)c1ccc(CNC(=O)c3ccc4nccn4c3)cc1)C2` [Example 272, N-[[4-[(8-methyl-5-oxa-2,8-diazaspiro[3.5]nonan-2-yl)sulfonyl]phenyl]methyl] imidazo[1,2-a]pyridine-6-carboxamide], the IC50 in experiment [1] (Homo sapiens, A2780, 72 h) came to 10 nM; in experiment [2], 33.6 nM.
Take `CC(C)N1CCC(S(=O)(=O)c2ccc(CNC(=O)c3ccc4nccn4c3)cc2)CC1` [Example 315, N-[[4-[(1-isopropyl-4-piperidyl)sulfonyl]phenyl]methyl]imidazo[1,2-a]pyridine-6-carboxamide]: the IC50 was determined as 30.3 nM in experiment [1] (Homo sapiens, A2780, 72 h) and 89 nM in experiment [2].
For `C[C@@H]1CN(S(=O)(=O)c2ccc(CNC(=O)c3ccc4nccn4c3)cc2)C[C@H](C)N1CC(F)(F)F` [Example 83, Imidazo[1,2-a]pyridine-6-carboxylic acid 4-[(3R,5S)-3,5-dimethyl-4-(2,2,2-trifluoro-ethyl)-piperazine-1-sulfonyl]-benzylamide] the same measures were 2.6 nM and 7.7 nM.
Take `COCCN1CCN(S(=O)(=O)c2ccc(CNC(=O)c3cc4ccncc4o3)cc2)CC1` [Example 298, N-[[4-[4-(2-methoxyethyl)piperazin-1-yl]sulfonylphenyl]methyl]furo [2,3-c]pyridine-2-carboxamide]: the IC50 in experiment [1] (Homo sapiens, A2780, 72 h) came out at 24.6 nM; in experiment [2], 90.6 nM.
For `CCCC(=O)N1CCC(S(=O)(=O)c2ccc(CNC(=O)c3cc4ccncc4o3)cc2)CC1` [Example 314, N-[[4-[(1-butanoyl-4-piperidyl)sulfonyl]phenyl]methyl]furo[2,3-c]pyridine-2-carboxamide] the same measures were 51.9 nM and 20.3 nM.
Regarding `O=C(NCc1ccc(S(=O)(=O)[C@@H]2CCOC2)cc1)c1cnc2nccn2c1` [Example 80, Imidazo[1,2-a]pyrimidine-6-carboxylic acid 4-[(R)-(tetrahydro-furan-3-yl)sulfonyl]-benzylamide], the results for the IC50 in experiment [1] and in experiment [2] were 457 nM and 8.9 nM, respectively.
With `COCCN1CCN(S(=O)(=O)c2ccc(CNC(=O)c3ccc4nccn4c3)cc2)CC1` [Example 98, Imidazo[1,2-a]pyridine-6-carboxylic acid 4-[4-(2-methoxy-ethyl)-piperazine-1-sulfonyl]-benzylamide], the IC50 is 10.1 nM in experiment [1] (Homo sapiens, A2780, 72 h) and 46.1 nM in experiment [2].
Turning to `O=C(NCc1ccc([S+]([O-])C2CCN(C3CCOCC3)CC2)cc1)c1ccc2nccn2c1` (stereo not drawn) [Example 384, N-[[4-[(1-tetrahydropyran-4-yl-4-piperidyl)sulfinyl]phenyl]methyl]imidazo[1,2-a] pyridine-6-carboxamide], the IC50 in experiment [1] (Homo sapiens, A2780, 72 h) worked out at 39.1 nM; in experiment [2] it was 36.2 nM.
